Assay results reported in patent US9352013B2, “Uses of bremelanotide in therapy for female sexual dysfunction” (Palatin Technologies, Inc., priority 2012, dated 2016).

Assay: Subcutaneous trial in males: vomiting
Assay type: in vivo, human
Settings: intramuscular ondansetron
Procedure: In a trial in males, 1 of 6 subjects at the 5-mg dose level, 1 of 6 subjects at the 7.5 mg dose level, and 3 of 6 subjects at the 10-mg dose level experienced vomiting that was mild or moderate in intensity and delayed 6 to 15 hours.

## Cc1nccn1CC1CCc2c(c3ccccc3n2C)C1=O (stereo not shown) [ondansetron, reference compound]
  Resolution of bremelanotide-associated vomiting: Vomiting could be resolved
